Test: Excretion of FDKP after pulmonary administration of Technosphere particles
Type: in vivo
Source text: Technosphere® refers to a diketopiperazine-based drug delivery system which can complex and stabilize peptides in small particles. Diketopiperazines, particularly fumaryl diketopiperazine (FDKP), self-assemble into microparticles with a mean diameter of about 2 microns. In the process it can entrap or complex with peptides, such as insulin, present in the solution during or after self-assembly. Once dried, these microparticles become a suitable composition for pulmonary delivery to the systemic circulation. When administered by the pulmonary route, Technosphere® particles dissolve in the pH neutral environment of the deep lung and facilitate the rapid and efficient absorption of the peptide into systemic circulation.

O=C(O)/C=C/C(=O)NCCCCC1NC(=O)C(CCCCNC(=O)/C=C/C(=O)O)NC1=O (stereo not shown) [FDKP, 3,6-di(fumaryl-4-aminobutyl)-2,5-diketopiperazine]
excretion: excreted un-metabolized in the urine within hours of administration

Source: patent publication US9801925B2, “Potentiation of glucose elimination” (MannKind Corporation, priority 1999, dated 2017)
